Laboratory results reported in patent publication US4992369A, “Fermentation process for glycopeptide antibiotic” (Pfizer Inc., priority 1986, dated 1991).

System: rumen fluid
Assay: In vitro rumen technique: propionic acid production in rumen fluid
Format: cell-based
Details: 10 micrograms per milliliter; rumen fluid from fistulated cow, 39° C., about 16 hours
Procedure: The value of animal feeds has generally been determined directly by feeding the animal. British Patent Specification No. 1,197,826 details an in vitro rumen technique whereby the changes occurring in feeds brought about by microorganisms are measured more readily and with great accuracy in the evaluation of animal feeds. This technique involves the use of an apparatus in which the digestive processes of the animals are conducted and studied in vitro. The animal feeds, rumen inoculum and various growth promotants are introduced into and withdrawn from a laboratory unit under carefully controlled conditions and the changes taken place are studied critically and progressively during the consumption of the feed by the microorganisms. […] The change in propionic acid content is expressed as percent of the propionic acid content found in the control rumen fluid. Long term in vivo feeding studies are used to show a reliable correlation between propionic acid increase in the rumen fluid and improved animal performance. […]
After incubation, 5 ml. of the sample is mixed with 1 ml. of 25% metaphosphoric acid. […] Samples are then analyzed by gas-liquid chromatography by the method of D. W. Kellog, J. Dairy Science, 52, 1690, 1969. Peak heights for acetic, propionic and butyric acids are determined for samples from untreated and treated incubation flasks.

SMILES: CC[C@@H](C(=O)[C@@H](C)[C@@H](O)[C@H](C)[C@@H]1O[C@@H]([C@@H](CC)C(=O)O)CC[C@@H]1C)[C@H]1O[C@]2(C=C[C@@H](O)[C@]3(CC[C@@](C)([C@H]4CC[C@](O)(CC)[C@H](C)O4)O3)O2)[C@H](C)C[C@@H]1C [salinomycin]
- increase in the production of propionic acid over control: ~46%
